US20240410879A1, “NEMATODE-SEALED CAPSULE, METHOD FOR PRODUCING NEMATODE-SEALED CAPSULE, AND USE OF NEMATODE-SEALED CAPSULE” (NATIONAL INSTITUTES FOR QUANTUM SCIENCE AND TECHNOLOGY, priority 2021, published 2024)

Key:
C. elegans [1] = details: in vivo
Text: Next, the nematodes having been grown in the nematode-encapsulated capsule were taken out, and locomotion of the nematodes was observed. As in Example 4, a hatching inhibitor-treated nematode-encapsulated capsule obtained two days after production of the capsule was transferred to a plate A1 with a tweezer, and the capsule was picked a plurality of times with a sterile toothpick, so that the inside of the capsule was exposed.

C. elegans [2] = assay: Hatching inhibitor (FUdR) treatment of adult nematodes: hatching of laid eggs on culture plate and in capsule; type: in vivo, Caenorhabditis elegans
Description: A dose of a chemical agent required to make all eggs laid by a generation treated with the chemical agent unable to hatch varies depending on, for example, the type, the developmental stage or the sex of the nematode, a type of the chemical agent, or a treatment (exposure) time. For example, in a case where an FUdR solution is added to the culture plate and a nematode which is an adult hermaphrodite of C. elegans prior to laying eggs is exposed to the FUdR solution for a day, a sterilization dose at which the hatching rate of the next generation becomes 0% is not less than 0.5 mg/mL. Exposure of the adult nematode prior to laying eggs to the chemical agent of a dose lower than the sterilization dose allows for making adjustment so that only a certain percentage of eggs hatch.
The nematodes were cultured on the plate to which E. coli had been applied, until the nematodes became adult nematodes (before start of egg laying) on the third day after hatching. FUdR solution was added to this nematode culture plate, and the nematodes were cultured for another day. The FUdR solution was prepared by dissolving 5 mg of FUdR powder in 10 mL of sterile ultrapure water and stirring.
Adult nematodes on the fourth day after hatching which had been exposed to a hatching inhibitor for one day were collected together with E. coli from the culture plate with use of the platinum wire picker. Then, the nematodes were dropped in the aqueous sol which was the same as that prepared in Example 1, so that a sterilized adult nematode sol was prepared. Next, a micropipette was used to suck out the nematode sol. The nematode sol was then dropped in a calcium lactate solution which filled a plastic dish, and immersed in the calcium lactate solution for approximately 5 minutes. The hatching inhibitor-treated nematode-encapsulated capsule in which the adult nematodes that had been exposed to the hatching inhibitor and E. coli that would be food were encapsulated. At the end, a sterilized-nematode-encapsulated capsule was taken out from the calcium lactate solution and an outer phase membrane of this capsule was washed with ultrapure water.
An image of a spherical capsule in which approximately 10 adult nematodes on the fourth day after hatching and having undergone a hatching inhibition treatment by exposure to FUdR were encapsulated was captured from above with use of a digital camera attached to a microscope and the spherical capsule was observed, every 24 hours (every day) from immediately after the production of the spherical capsule. […] After one day and also after two days, it was possible to observe a state in which the adult nematodes moved inside the capsule. […]

C. elegans [3] = assay: Chemotaxis assay to volatile substance on nematode trap plate A3, nematodes supplied from nematode-encapsulated capsule (Example 10); type: in vivo, Caenorhabditis elegans; details: capsule supply, mean of two assays, FIG. 19
Description: An assay for evaluating response of nematodes to a volatile substance was conducted with use of diacetyl (having a molarity of 11.5 M at 15° C.), which is a kind of volatile substance, and diluted solutions prepared by diluting the diacetyl by two different dilution factors of 10 and 10^5. Note that the assay method was a method using a nematode trap plate. […]
Next, several nematode-encapsulated capsules in which nematode eggs were encapsulated and grown to adult nematodes were each picked with a tip of a micropipette chip, so that an outer phase membrane was broken. […] Thereafter, the number of nematodes caught in the fall-in cavities was counted.
Assuming that the total number of nematodes caught in the two left fall-in cavities filled with the test solution was N1 and the total number of nematodes caught in the two right fall-in cavities filled with the control buffer solution was N2, a value obtained according to the following formula was defined as a chemotaxis index (C.I.). Then, the response was evaluated. […]

C. elegans [4] = assay: Chemotaxis assay to volatile substance on plate A3, conventional nematode supply method (Comparative Example 2); type: in vivo, Caenorhabditis elegans; details: mean of three assays, FIG. 20
Description: Assuming that the total number of nematodes caught in the two left fall-in cavities filled with the test solution was N1 and the total number of nematodes caught in the two right fall-in cavities filled with the control buffer solution was N2, a value obtained according to the following formula was defined as a chemotaxis index (C.I.). Then, the response was evaluated. Chemotaxis index (C. I.)=(N1−N2)/(N1+N2). As Comparative Example, evaluation of response of nematodes was carried out on the basis of a conventionally-known method for supplying nematodes. Used was a plate A3 which was identical to that used in Example 10 and in which two sets of two fall-in cavities were formed on left and right sides in symmetrical positions. A test solution was diluted solutions of diacetyl at two different concentrations as in Example 10. Note that the above dilution was conducted with use of a buffer solution, which served as a control. A nematode liquid containing nematodes having been washed in advance with wash buffer was dropped onto the center of the nematode assay plate, and a liquid component was wiped out with a paper wiper. Then, the nematodes were released on the plate. The plate was covered with a lid and sealed with a paraffin film. […] Thereafter, the number of nematodes caught in the fall-in cavities was counted.

[5] = 10-fold diluted solution of diacetyl
[6] = 10^5-fold diluted solution of diacetyl

O=c1[nH]c(=O)n([C@H]2C[C@H](O)[C@@H](CO)O2)cc1F [FUdR, 5-Fluoro-2′-deoxyuridine]
locomotion of adult nematodes escaped from capsule (C. elegans [1]): No remarkable abnormality in locomotion was observed | hatching of eggs laid on culture plate to which FUdR was added (C. elegans [2]; FUdR solution 5 mg in 10 mL added to culture plate, adults from third day after hatching cultured another day): the eggs did not hatch | sterilization dose at which the hatching rate of the next generation becomes 0% (C. elegans [2]; FUdR solution added to culture plate, adult hermaphrodite of C. elegans prior to laying eggs exposed for a day): not less than 0.5 mg/mL | hatching of eggs laid in capsule by adult nematodes exposed to FUdR (C. elegans [2]; approximately 10 adults on fourth day after hatching, exposed one day on plate, encapsulated, observed up to two days after production): did not hatch, and no larvae were observed | hatching result with nematodes cultured for one day in culture solution containing FUdR (C. elegans [2]; culture solution containing FUdR instead of culture plate, nematode-encapsulated capsule): a result similar to that obtained by culturing on the culture plate to which the FUdR solution was added could be obtained

CC(=O)C(C)=O [diacetyl]
Chemotaxis index (C.I.) (C. elegans [3]; [5]): negative | Chemotaxis index (C.I.) (C. elegans [3]; [6]): positive | Chemotaxis index (C.I.) (C. elegans [4]; [5]): negative | Chemotaxis index (C.I.) (C. elegans [4]; [6]): positive
